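All cell lines were grown in 96-well plates and treated with compound for 48 hours. TGI: concentration producing complete growth inhibition.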
What was measured:
Assay in all cases: DTP human tumour cell line panel, 48 h
[1] = tested on: MDA-MB-435
[2] = tested on: NCI-H226 lung
[3] = tested on: SK-MEL-2 melanoma
[4] = tested on: SW-620 colon
[5] = tested on: CCRF-CEM leukemia
[6] = tested on: HOP-18 NSCLC
[7] = tested on: RXF 393 renal
[8] = tested on: MCF7 breast
[9] = tested on: SF-295 CNS
[10] = tested on: UACC-257 melanoma
[11] = tested on: A549 NSCLC
[12] = tested on: HS 578T breast
[13] = tested on: DU-145 prostate
[14] = tested on: M19-MEL melanoma
[15] = tested on: LOX IMVI melanoma
[16] = tested on: MALME-3M melanoma
[17] = tested on: UO-31 renal
[18] = tested on: LXFL 529 NSCLC
[19] = tested on: HCT-116 colon
[20] = tested on: EKVX NSCLC
[21] = tested on: OVCAR-8 ovarian
[22] = tested on: OVCAR-4 ovarian
[23] = tested on: A498 renal
[24] = tested on: SF-268 CNS
[25] = tested on: 786-0 renal
[26] = tested on: NCI/ADR-RES ovarian
[27] = tested on: HT29 colon
[28] = tested on: SK-OV-3 ovarian
[29] = tested on: RPMI-8226 leukemia
[30] = tested on: HL-60(TB) leukemia
[31] = tested on: HCT-15 colon
[32] = tested on: SR leukemia
[33] = tested on: HCC-2998 colon
[34] = tested on: SNB-75 CNS
[35] = tested on: TK-10 renal
[36] = tested on: PC-3 prostate
[37] = tested on: SNB-19 CNS
[38] = tested on: KM20L2 colon
[39] = tested on: OVCAR-5 ovarian
[40] = tested on: NCI-H23 lung
[41] = tested on: M14 melanoma
[42] = tested on: COLO 205 colon
[43] = tested on: SN12C renal
[44] = tested on: ACHN renal
[45] = tested on: KM12 colon
[46] = tested on: SF-539 CNS
[47] = tested on: U251 CNS
[48] = tested on: MOLT-4 leukemia
[49] = tested on: IGROV1 ovarian
[50] = tested on: CAKI-1 renal
[51] = tested on: SNB-78 CNS
[52] = tested on: XF 498 CNS
[53] = tested on: SK-MEL-28 melanoma
[54] = tested on: NCI-H522 lung
[55] = tested on: NCI-H460 lung
[56] = tested on: MDA-N
[57] = tested on: HOP-92 NSCLC
[58] = tested on: DMS 273 small cell lung
[59] = tested on: SK-MEL-5 melanoma
[60] = tested on: OVCAR-3 ovarian
[61] = tested on: MDA-MB-231 breast
[62] = tested on: K-562 leukemia
[63] = tested on: T-47D breast
[64] = tested on: UACC-62 melanoma
[65] = tested on: HOP-62 NSCLC
[66] = tested on: RXF-631 renal
[67] = tested on: DLD-1 colon
[68] = tested on: DMS 114 small cell lung

## O=C1C(Cl)=C(N2CCN(CCOCCO)CC2)C(=O)c2ccccc21
[1]
  TGI: 12.8 µM
[2]
  TGI: 31 µM
[3]
  TGI: 23 µM
[4]
  TGI: 3.09 µM
[5]
  TGI: 7.27 µM
[6]
  TGI: 29.9 µM
[7]
  TGI: 8.91 µM
[8]
  TGI: 14.4 µM
[9]
  TGI: 32 µM
[10]
  TGI: 15.7 µM
[11]
  TGI: 34.2 µM
[12]
  TGI: 39.2 µM
[13]
  TGI: 34 µM
[14]
  TGI: 14.6 µM
[15]
  TGI: 17.7 µM
[16]
  TGI: 15.2 µM
[17]
  TGI: 21.2 µM
[18]
  TGI: 3.37 µM
[19]
  TGI: 11.1 µM
[20]
  TGI: 32.3 µM
[21]
  TGI: 28.2 µM
[22]
  TGI: 6.26 µM
[23]
  TGI: 33.4 µM
[24]
  TGI: 30.3 µM
[25]
  TGI: 24 µM
[26]
  TGI: 25 µM
[27]
  TGI: 30 µM
[28]
  TGI: 28.9 µM
[29]
  TGI: > 26.9 µM
[30]
  TGI: 14 µM
[31]
  TGI: 24.4 µM
[32]
  TGI: 8.51 µM
[33]
  TGI: 32.1 µM
[34]
  TGI: 27.7 µM
[35]
  TGI: 34.7 µM
[36]
  TGI: 31.9 µM
[37]
  TGI: > 56.3 µM
[38]
  TGI: 32.2 µM
[39]
  TGI: 37.4 µM
[40]
  TGI: 28 µM
[41]
  TGI: 22.6 µM
[42]
  TGI: 28.7 µM
[43]
  TGI: 28.8 µM
[44]
  TGI: 19.5 µM
[45]
  TGI: 31.6 µM
[46]
  TGI: 33.1 µM
[47]
  TGI: 31 µM
[48]
  TGI: 5.99 µM
[49]
  TGI: 28.6 µM
[50]
  TGI: 29.5 µM
[51]
  TGI: 32.3 µM
[52]
  TGI: 5.81 µM
[53]
  TGI: 32.1 µM
[54]
  TGI: 3.57 µM
[55]
  TGI: 32.8 µM
[56]
  TGI: 4.17 µM
[57]
  TGI: 2.89 µM
[58]
  TGI: 31.2 µM
[59]
  TGI: 28.2 µM
[60]
  TGI: 9.44 µM
[61]
  TGI: 17.9 µM
[62]
  TGI: > 21.7 µM
[63]
  TGI: 3.34 µM
[64]
  TGI: 13.7 µM

## CC(C)COC(=O)c1ccc(N=Cc2ccc(C=Nc3ccc(C(=O)OCC(C)C)cc3)cc2)cc1
[2]
  TGI: > 100 µM
[3]
  TGI: > 100 µM
[4]
  TGI: > 100 µM
[9]
  TGI: > 100 µM
[10]
  TGI: > 100 µM
[11]
  TGI: > 100 µM
[14]
  TGI: > 100 µM
[15]
  TGI: > 100 µM
[16]
  TGI: > 100 µM
[17]
  TGI: > 100 µM
[18]
  TGI: > 100 µM
[21]
  TGI: > 100 µM
[22]
  TGI: > 100 µM
[24]
  TGI: > 100 µM
[65]
  TGI: > 100 µM
[25]
  TGI: > 100 µM
[27]
  TGI: > 100 µM
[28]
  TGI: > 100 µM
[29]
  TGI: > 100 µM
[30]
  TGI: > 100 µM
[31]
  TGI: > 100 µM
[32]
  TGI: > 100 µM
[33]
  TGI: > 100 µM
[34]
  TGI: > 100 µM
[35]
  TGI: > 100 µM
[37]
  TGI: > 100 µM
[38]
  TGI: > 100 µM
[39]
  TGI: > 100 µM
[40]
  TGI: > 100 µM
[41]
  TGI: > 100 µM
[42]
  TGI: > 100 µM
[43]
  TGI: > 100 µM
[44]
  TGI: > 100 µM
[45]
  TGI: > 100 µM
[66]
  TGI: > 100 µM
[67]
  TGI: > 100 µM
[46]
  TGI: > 100 µM
[47]
  TGI: > 100 µM
[48]
  TGI: > 100 µM
[49]
  TGI: > 100 µM
[50]
  TGI: > 100 µM
[51]
  TGI: > 100 µM
[52]
  TGI: > 100 µM
[53]
  TGI: > 100 µM
[54]
  TGI: > 100 µM
[55]
  TGI: > 100 µM
[57]
  TGI: > 100 µM
[58]
  TGI: > 100 µM
[60]
  TGI: > 100 µM
[62]
  TGI: > 100 µM
[64]
  TGI: > 100 µM

## O=C(CCC(=O)Nc1ccc(Cl)cc1)CC(=O)c1ccc2ccccc2c1
[2]
  TGI: > 100 µM
[3]
  TGI: > 100 µM
[4]
  TGI: > 100 µM
[5]
  TGI: > 100 µM
[6]
  TGI: > 100 µM
[7]
  TGI: > 100 µM
[9]
  TGI: > 100 µM
[10]
  TGI: > 100 µM
[11]
  TGI: > 100 µM
[14]
  TGI: > 100 µM
[15]
  TGI: > 100 µM
[16]
  TGI: > 100 µM
[68]
  TGI: > 100 µM
[17]
  TGI: > 100 µM
[18]
  TGI: > 100 µM
[19]
  TGI: > 100 µM
[20]
  TGI: > 100 µM
[21]
  TGI: > 100 µM
[22]
  TGI: > 100 µM
[23]
  TGI: > 100 µM
[24]
  TGI: > 100 µM
[65]
  TGI: > 100 µM
[25]
  TGI: > 100 µM
[27]
  TGI: > 100 µM
[28]
  TGI: > 100 µM
[29]
  TGI: > 100 µM
[30]
  TGI: > 100 µM
[31]
  TGI: > 100 µM
[32]
  TGI: > 100 µM
[33]
  TGI: > 100 µM
[34]
  TGI: > 100 µM
[35]
  TGI: > 100 µM
[37]
  TGI: > 100 µM
[38]
  TGI: > 100 µM
[39]
  TGI: > 100 µM
[40]
  TGI: > 100 µM
[41]
  TGI: > 100 µM
[42]
  TGI: > 100 µM
[43]
  TGI: > 100 µM
[44]
  TGI: > 100 µM
[45]
  TGI: > 100 µM
[66]
  TGI: > 100 µM
[67]
  TGI: > 100 µM
[46]
  TGI: > 100 µM
[47]
  TGI: > 100 µM
[48]
  TGI: > 100 µM
[49]
  TGI: > 100 µM
[50]
  TGI: > 100 µM
[51]
  TGI: > 100 µM
[53]
  TGI: > 100 µM
[54]
  TGI: > 100 µM
[55]
  TGI: > 100 µM
[57]
  TGI: > 100 µM
[58]
  TGI: > 100 µM
[59]
  TGI: > 100 µM
[60]
  TGI: > 100 µM
[62]
  TGI: > 100 µM
[64]
  TGI: > 100 µM

## COc1cccc(N2C(=O)/C(=C/c3ccc(N(CCC#N)CCC#N)cc3)N=C2c2cc([N+](=O)[O-])ccc2Cl)c1
[2]
  TGI: > 100 µM
[3]
  TGI: > 100 µM
[4]
  TGI: > 100 µM
[5]
  TGI: > 100 µM
[6]
  TGI: > 100 µM
[9]
  TGI: > 100 µM
[10]
  TGI: > 100 µM
[16]
  TGI: > 100 µM
[68]
  TGI: > 100 µM
[17]
  TGI: > 100 µM
[18]
  TGI: > 100 µM
[21]
  TGI: > 100 µM
[22]
  TGI: > 100 µM
[23]
  TGI: > 100 µM
[24]
  TGI: > 100 µM
[65]
  TGI: > 100 µM
[25]
  TGI: > 100 µM
[27]
  TGI: > 100 µM
[28]
  TGI: > 100 µM
[29]
  TGI: > 100 µM
[30]
  TGI: > 100 µM
[31]
  TGI: > 100 µM
[32]
  TGI: > 100 µM
[33]
  TGI: > 100 µM
[34]
  TGI: > 100 µM
[37]
  TGI: > 100 µM
[38]
  TGI: > 100 µM
[39]
  TGI: > 100 µM
[40]
  TGI: > 100 µM
[41]
  TGI: > 100 µM
[42]
  TGI: 62.4 µM
[43]
  TGI: > 100 µM
[44]
  TGI: > 100 µM
[45]
  TGI: > 100 µM
[66]
  TGI: > 100 µM
[67]
  TGI: > 100 µM
[46]
  TGI: > 100 µM
[47]
  TGI: > 100 µM
[48]
  TGI: 68.2 µM
[49]
  TGI: > 100 µM
[50]
  TGI: > 100 µM
[51]
  TGI: > 100 µM
[53]
  TGI: > 100 µM
[54]
  TGI: > 100 µM
[55]
  TGI: > 100 µM
[58]
  TGI: > 100 µM
[59]
  TGI: > 100 µM
[60]
  TGI: > 100 µM
[62]
  TGI: > 100 µM
[64]
  TGI: > 100 µM

Reference: PubChem BioAssay (NCI)
